Experimental data: patent US7202280B2, “Methods for the treatment and prevention of pancreatitis and for induction of liver regeneration” (priority 2002, dated 2007)

System: syngenic and metallothionein-SSAT mice
Test: Hepatic, pancreatic and renal polyamine concentration in syngenic and metallothionein-SSAT mice after analogue
Type: in vivo, mouse
Details: 24 h before sacrifice
Procedure: α-methylspermidine, Bis-α-methylspermine and α-methylspermine were administered in saline. […] The data are expressed as means ±S.D. For statistical analysis, the two-tailed Student's t test was used.

[1] = Tg (transgenic) mice, 12.5 mg/kg

CC(N)CCNCCCCNCCCN (stereo not drawn) [α-methylspermine, 1-methylspermine]
hepatic concentration, α-Methylspermine (Sg (syngenic) mice, 12.5 mg/kg): 470.60 pmoles/mg tissue wet weight
hepatic polyamine concentration, N^1-Acetylspermidine (Sg (syngenic) mice, 12.5 mg/kg): 37.49 pmoles/mg tissue wet weight
hepatic polyamine concentration, Putrescine (Sg (syngenic) mice, 12.5 mg/kg): 39.46 pmoles/mg tissue wet weight
hepatic polyamine concentration, Spermidine (Sg (syngenic) mice, 12.5 mg/kg): 669.94 pmoles/mg tissue wet weight
hepatic polyamine concentration, Spermine (Sg (syngenic) mice, 12.5 mg/kg): 568.21 pmoles/mg tissue wet weight
pancreatic polyamine concentration, N^1-Acetylspermidine (Sg (syngenic) mice, 12.5 mg/kg): 56.32 pmoles/mg tissue wet weight
pancreatic polyamine concentration, N^8-Acetylspermidine (Sg (syngenic) mice, 12.5 mg/kg): 17.17 pmoles/mg tissue wet weight
pancreatic polyamine concentration, Putrescine (Sg (syngenic) mice, 12.5 mg/kg): 80.74 pmoles/mg tissue wet weight
pancreatic polyamine concentration, Spermidine (Sg (syngenic) mice, 12.5 mg/kg): 7952.04 pmoles/mg tissue wet weight
pancreatic polyamine concentration, Spermine (Sg (syngenic) mice, 12.5 mg/kg): 1048.44 pmoles/mg tissue wet weight
renal concentration, α-Methylspermine (Sg (syngenic) mice, 12.5 mg/kg): 197.48 ± 6.80 pmoles/mg tissue wet weight
renal polyamine concentration, N^1-Acetylspermidine (Sg (syngenic) mice, 12.5 mg/kg): 46.16 pmoles/mg tissue wet weight
renal polyamine concentration, N^8-Acetylspermidine (Sg (syngenic) mice, 12.5 mg/kg): 24.91 pmoles/mg tissue wet weight
renal polyamine concentration, Putrescine (Sg (syngenic) mice, 12.5 mg/kg): 48.17 pmoles/mg tissue wet weight
renal polyamine concentration, Spermidine (Sg (syngenic) mice, 12.5 mg/kg): 312.55 pmoles/mg tissue wet weight
renal polyamine concentration, Spermine (Sg (syngenic) mice, 12.5 mg/kg): 247.41 pmoles/mg tissue wet weight
hepatic concentration, α-Methylspermine (Sg (syngenic) mice, 25 mg/kg): 420.20 pmoles/mg tissue wet weight
hepatic polyamine concentration, Putrescine (Sg (syngenic) mice, 25 mg/kg): 44.18 pmoles/mg tissue wet weight
hepatic polyamine concentration, Spermidine (Sg (syngenic) mice, 25 mg/kg): 1015.51 pmoles/mg tissue wet weight
hepatic polyamine concentration, Spermine (Sg (syngenic) mice, 25 mg/kg): 411.06 pmoles/mg tissue wet weight
pancreatic polyamine concentration, N^1-Acetylspermidine (Sg (syngenic) mice, 25 mg/kg): 19.45 pmoles/mg tissue wet weight
pancreatic polyamine concentration, N^8-Acetylspermidine (Sg (syngenic) mice, 25 mg/kg): 24.47 pmoles/mg tissue wet weight
pancreatic polyamine concentration, Putrescine (Sg (syngenic) mice, 25 mg/kg): 50.98 pmoles/mg tissue wet weight
pancreatic polyamine concentration, Spermidine (Sg (syngenic) mice, 25 mg/kg): 5421.66 pmoles/mg tissue wet weight
pancreatic polyamine concentration, Spermine (Sg (syngenic) mice, 25 mg/kg): 729.10 pmoles/mg tissue wet weight
renal concentration, α-Methylspermine (Sg (syngenic) mice, 25 mg/kg): 228.87 ± 6.44 pmoles/mg tissue wet weight
renal polyamine concentration, N^1-Acetylspermidine (Sg (syngenic) mice, 25 mg/kg): 59.48 pmoles/mg tissue wet weight
renal polyamine concentration, N^8-Acetylspermidine (Sg (syngenic) mice, 25 mg/kg): 25.80 pmoles/mg tissue wet weight
renal polyamine concentration, Putrescine (Sg (syngenic) mice, 25 mg/kg): 122.64 pmoles/mg tissue wet weight
renal polyamine concentration, Spermidine (Sg (syngenic) mice, 25 mg/kg): 215.41 pmoles/mg tissue wet weight
renal polyamine concentration, Spermine (Sg (syngenic) mice, 25 mg/kg): 272.18 pmoles/mg tissue wet weight
hepatic concentration, α-Methylspermine (Sg (syngenic) mice, 37.5 mg/kg): 510.72 pmoles/mg tissue wet weight
hepatic polyamine concentration, Spermidine (Sg (syngenic) mice, 37.5 mg/kg): 830.89 pmoles/mg tissue wet weight
hepatic polyamine concentration, Spermine (Sg (syngenic) mice, 37.5 mg/kg): 485.75 pmoles/mg tissue wet weight
pancreatic polyamine concentration, Putrescine (Sg (syngenic) mice, 37.5 mg/kg): 36.15 pmoles/mg tissue wet weight
pancreatic polyamine concentration, Spermidine (Sg (syngenic) mice, 37.5 mg/kg): 5806.20 pmoles/mg tissue wet weight
pancreatic polyamine concentration, Spermine (Sg (syngenic) mice, 37.5 mg/kg): 804.72 pmoles/mg tissue wet weight
renal concentration, α-Methylspermine (Sg (syngenic) mice, 37.5 mg/kg): 245.67 ± 38.85 pmoles/mg tissue wet weight
renal polyamine concentration, N^1-Acetylspermidine (Sg (syngenic) mice, 37.5 mg/kg): 30.29 pmoles/mg tissue wet weight
renal polyamine concentration, N^8-Acetylspermidine (Sg (syngenic) mice, 37.5 mg/kg): 24.30 pmoles/mg tissue wet weight
renal polyamine concentration, Putrescine (Sg (syngenic) mice, 37.5 mg/kg): 59.01 pmoles/mg tissue wet weight
renal polyamine concentration, Spermidine (Sg (syngenic) mice, 37.5 mg/kg): 244.82 pmoles/mg tissue wet weight
renal polyamine concentration, Spermine (Sg (syngenic) mice, 37.5 mg/kg): 207.72 pmoles/mg tissue wet weight
hepatic concentration, α-Methylspermine (Sg (syngenic) mice, 50 mg/kg): 521.41 pmoles/mg tissue wet weight
hepatic polyamine concentration, N^1-Acetylspermidine (Sg (syngenic) mice, 50 mg/kg): 45.74 pmoles/mg tissue wet weight
hepatic polyamine concentration, N^8-Acetylspermidine (Sg (syngenic) mice, 50 mg/kg): 15.33 pmoles/mg tissue wet weight
hepatic polyamine concentration, Putrescine (Sg (syngenic) mice, 50 mg/kg): 22.71 pmoles/mg tissue wet weight
hepatic polyamine concentration, Spermidine (Sg (syngenic) mice, 50 mg/kg): 780.24 pmoles/mg tissue wet weight
hepatic polyamine concentration, Spermine (Sg (syngenic) mice, 50 mg/kg): 419.39 pmoles/mg tissue wet weight
pancreatic polyamine concentration, N^8-Acetylspermidine (Sg (syngenic) mice, 50 mg/kg): 19.89 pmoles/mg tissue wet weight
pancreatic polyamine concentration, Putrescine (Sg (syngenic) mice, 50 mg/kg): 107.70 pmoles/mg tissue wet weight
pancreatic polyamine concentration, Spermidine (Sg (syngenic) mice, 50 mg/kg): 6839.92 pmoles/mg tissue wet weight
pancreatic polyamine concentration, Spermine (Sg (syngenic) mice, 50 mg/kg): 811.45 pmoles/mg tissue wet weight
renal concentration, α-Methylspermine (Sg (syngenic) mice, 50 mg/kg): 263.69 ± 49.92 pmoles/mg tissue wet weight
renal polyamine concentration, N^1-Acetylspermidine (Sg (syngenic) mice, 50 mg/kg): 48.23 pmoles/mg tissue wet weight
renal polyamine concentration, N^8-Acetylspermidine (Sg (syngenic) mice, 50 mg/kg): 21.09 pmoles/mg tissue wet weight
renal polyamine concentration, Putrescine (Sg (syngenic) mice, 50 mg/kg): 160.04 pmoles/mg tissue wet weight
renal polyamine concentration, Spermidine (Sg (syngenic) mice, 50 mg/kg): 193.19 pmoles/mg tissue wet weight
renal polyamine concentration, Spermine (Sg (syngenic) mice, 50 mg/kg): 258.42 pmoles/mg tissue wet weight
hepatic concentration, α-Methylspermine [1]: 138.89 pmoles/mg tissue wet weight
hepatic polyamine concentration, N^1-Acetylspermidine [1]: 242.81 pmoles/mg tissue wet weight
hepatic polyamine concentration, Putrescine [1]: 857.28 pmoles/mg tissue wet weight
hepatic polyamine concentration, Spermidine [1]: 717.42 pmoles/mg tissue wet weight
hepatic polyamine concentration, Spermine [1]: 62.74 pmoles/mg tissue wet weight
